Measured values as given in the supplement of paper PMC13380429.

Tests used:
Conditions in all cases: 72 h
[1] = test system: HepG2; assay: relative viability EC50 (midpoint between 100% and the lowest measured viability); higher = less toxic
[2] = test system: Calu-3; assay: as above
[3] = test system: U2OS; assay: as above
[4] = test system: Vero E6; assay: as above
[5] = test system: Caco-2; assay: as above
[6] = test system: HepG2; assay: drug sensitivity score (DSS) for viability; higher = more toxic; extreme values may be limits of the assay
[7] = test system: Calu-3; assay: as above
[8] = test system: U2OS; assay: as above
[9] = test system: Vero E6; assay: as above
[10] = test system: Caco-2; assay: as above
[11] = test system: HepG2; assay: cell viability relative to DMSO; higher = less toxic
[12] = test system: Calu-3; assay: as above
[13] = test system: U2OS; assay: as above
[14] = test system: Vero E6; assay: as above
[15] = test system: Caco-2; assay: as above

SMILES: CC(=O)N[C@H]1[C@@H](OC(C)C)O[C@H](COC(C)=O)[C@@H](OC(C)=O)[C@@H]1OC(C)=O [C34]
- relative viability EC50 [1]: > 10 µM
- relative viability EC50 [2]: > 10 µM
- relative viability EC50 [3]: > 10 µM
- relative viability EC50 [4]: > 10 µM
- relative viability EC50 [5]: > 10 µM
- drug sensitivity score [6]: 0
- drug sensitivity score [7]: 0
- drug sensitivity score [8]: 0
- drug sensitivity score [9]: 0
- drug sensitivity score [10]: 0
- cell viability ([11]; 1 nM): 95.3%
- cell viability ([11]; 10 nM): 102%
- cell viability ([11]; 100 nM): 102%
- cell viability ([11]; 1000 nM): 102%
- cell viability ([11]; 10000 nM): 110%
- cell viability ([12]; 1 nM): 112%
- cell viability ([12]; 10 nM): 96.1%
- cell viability ([12]; 100 nM): 103%
- cell viability ([12]; 1000 nM): 95.5%
- cell viability ([12]; 10000 nM): 101%
- cell viability ([13]; 1 nM): 102%
- cell viability ([13]; 10 nM): 106%
- cell viability ([13]; 100 nM): 96.9%
- cell viability ([13]; 1000 nM): 103%
- cell viability ([13]; 10000 nM): 96.3%
- cell viability ([14]; 1 nM): 96.2%
- cell viability ([14]; 10 nM): 96.2%
- cell viability ([14]; 100 nM): 97.1%
- cell viability ([14]; 1000 nM): 96.6%
- cell viability ([14]; 10000 nM): 95.5%
- cell viability ([15]; 1 nM): 106%
- cell viability ([15]; 10 nM): 109%
- cell viability ([15]; 100 nM): 91.8%
- cell viability ([15]; 1000 nM): 101%
- cell viability ([15]; 10000 nM): 98.5%

SMILES: CC(=O)Nc1ccc(C(=O)NC(C)(C)C)cc1 [CPI-1189]
- relative viability EC50 [1]: > 10 µM
- relative viability EC50 [2]: > 10 µM
- relative viability EC50 [3]: > 10 µM
- relative viability EC50 [4]: > 10 µM
- relative viability EC50 [5]: > 10 µM
- drug sensitivity score [6]: 0
- drug sensitivity score [7]: 0
- drug sensitivity score [8]: 0
- drug sensitivity score [9]: 0
- drug sensitivity score [10]: 0
- cell viability ([11]; 1 nM): 91.5%
- cell viability ([11]; 10 nM): 95.3%
- cell viability ([11]; 100 nM): 96.6%
- cell viability ([11]; 1000 nM): 97.4%
- cell viability ([11]; 10000 nM): 94.2%
- cell viability ([12]; 1 nM): 108%
- cell viability ([12]; 10 nM): 105%
- cell viability ([12]; 100 nM): 108%
- cell viability ([12]; 1000 nM): 114%
- cell viability ([12]; 10000 nM): 96.6%
- cell viability ([13]; 1 nM): 100%
- cell viability ([13]; 10 nM): 93.3%
- cell viability ([13]; 100 nM): 98.2%
- cell viability ([13]; 1000 nM): 97%
- cell viability ([13]; 10000 nM): 98.7%
- cell viability ([14]; 1 nM): 96%
- cell viability ([14]; 10 nM): 99.6%
- cell viability ([14]; 100 nM): 97.8%
- cell viability ([14]; 1000 nM): 97.2%
- cell viability ([14]; 10000 nM): 91.8%
- cell viability ([15]; 1 nM): 99.9%
- cell viability ([15]; 10 nM): 99.7%
- cell viability ([15]; 100 nM): 104%
- cell viability ([15]; 1000 nM): 95.7%
- cell viability ([15]; 10000 nM): 99.9%

SMILES: CC(C)(CC(=O)N1CCCC1)NCC(=O)N1C[C@@H](F)C[C@H]1C#N [DBPR108]
- relative viability EC50 [1]: > 10 µM
- relative viability EC50 [2]: > 10 µM
- relative viability EC50 [3]: > 10 µM
- relative viability EC50 [4]: > 10 µM
- relative viability EC50 [5]: > 10 µM
- drug sensitivity score [6]: 0
- drug sensitivity score [7]: 0
- drug sensitivity score [8]: 0
- drug sensitivity score [9]: 0
- drug sensitivity score [10]: 0
- cell viability ([11]; 1 nM): 96.2%
- cell viability ([11]; 10 nM): 102%
- cell viability ([11]; 100 nM): 94.6%
- cell viability ([11]; 1000 nM): 104%
- cell viability ([11]; 10000 nM): 105%
- cell viability ([12]; 1 nM): 107%
- cell viability ([12]; 10 nM): 97.5%
- cell viability ([12]; 100 nM): 100%
- cell viability ([12]; 1000 nM): 98.9%
- cell viability ([12]; 10000 nM): 95%
- cell viability ([13]; 1 nM): 97.9%
- cell viability ([13]; 10 nM): 98.1%
- cell viability ([13]; 100 nM): 99.1%
- cell viability ([13]; 1000 nM): 100%
- cell viability ([13]; 10000 nM): 92.9%
- cell viability ([14]; 1 nM): 99.6%
- cell viability ([14]; 10 nM): 99.9%
- cell viability ([14]; 100 nM): 104%
- cell viability ([14]; 1000 nM): 92.2%
- cell viability ([14]; 10000 nM): 102%
- cell viability ([15]; 1 nM): 91.1%
- cell viability ([15]; 10 nM): 93.5%
- cell viability ([15]; 100 nM): 86.4%
- cell viability ([15]; 1000 nM): 95.6%
- cell viability ([15]; 10000 nM): 95%

SMILES: O=C(c1ccc(Cl)cc1)N(Cc1ccccc1)C1CCCCC1 [FPS-ZM1]
- relative viability EC50 [1]: > 10 µM
- relative viability EC50 [2]: > 10 µM
- relative viability EC50 [3]: > 10 µM
- relative viability EC50 [4]: > 10 µM
- relative viability EC50 [5]: > 10 µM
- drug sensitivity score [6]: 0
- drug sensitivity score [7]: 0
- drug sensitivity score [8]: 0
- drug sensitivity score [9]: 0
- drug sensitivity score [10]: 0
- cell viability ([11]; 1 nM): 106%
- cell viability ([11]; 10 nM): 106%
- cell viability ([11]; 100 nM): 102%
- cell viability ([11]; 1000 nM): 92.9%
- cell viability ([11]; 10000 nM): 93.8%
- cell viability ([12]; 1 nM): 105%
- cell viability ([12]; 10 nM): 96.3%
- cell viability ([12]; 100 nM): 102%
- cell viability ([12]; 1000 nM): 99.3%
- cell viability ([12]; 10000 nM): 89.7%
- cell viability ([13]; 1 nM): 98%
- cell viability ([13]; 10 nM): 98.6%
- cell viability ([13]; 100 nM): 97.4%
- cell viability ([13]; 1000 nM): 100%
- cell viability ([13]; 10000 nM): 96.2%
- cell viability ([14]; 1 nM): 97.6%
- cell viability ([14]; 10 nM): 97.7%
- cell viability ([14]; 100 nM): 99.3%
- cell viability ([14]; 1000 nM): 101%
- cell viability ([14]; 10000 nM): 90.8%
- cell viability ([15]; 1 nM): 101%
- cell viability ([15]; 10 nM): 91.6%
- cell viability ([15]; 100 nM): 93.3%
- cell viability ([15]; 1000 nM): 102%
- cell viability ([15]; 10000 nM): 89.4%

SMILES: Cc1ccc2c(c1)Cc1c(C(=O)NN3CCCCC3)nn(-c3ccc(Cl)cc3Cl)c1-2 [GP1a]
- relative viability EC50 [1]: > 10 µM
- relative viability EC50 [2]: > 10 µM
- relative viability EC50 [3]: > 10 µM
- relative viability EC50 [4]: > 10 µM
- relative viability EC50 [5]: > 10 µM
- drug sensitivity score [6]: 0
- drug sensitivity score [7]: 0.1
- drug sensitivity score [8]: 0
- drug sensitivity score [9]: 0
- drug sensitivity score [10]: 0.3
- cell viability ([11]; 1 nM): 100%
- cell viability ([11]; 10 nM): 96.9%
- cell viability ([11]; 100 nM): 98.4%
- cell viability ([11]; 1000 nM): 91.9%
- cell viability ([11]; 10000 nM): 91.3%
- cell viability ([12]; 1 nM): 99.6%
- cell viability ([12]; 10 nM): 101%
- cell viability ([12]; 100 nM): 91.8%
- cell viability ([12]; 1000 nM): 101%
- cell viability ([12]; 10000 nM): 86.7%
- cell viability ([13]; 1 nM): 99.4%
- cell viability ([13]; 10 nM): 108%
- cell viability ([13]; 100 nM): 97.7%
- cell viability ([13]; 1000 nM): 101%
- cell viability ([13]; 10000 nM): 89.7%
- cell viability ([14]; 1 nM): 99.9%
- cell viability ([14]; 10 nM): 100%
- cell viability ([14]; 100 nM): 103%
- cell viability ([14]; 1000 nM): 100%
- cell viability ([14]; 10000 nM): 98.6%
- cell viability ([15]; 1 nM): 102%
- cell viability ([15]; 10 nM): 102%
- cell viability ([15]; 100 nM): 103%
- cell viability ([15]; 1000 nM): 99.5%
- cell viability ([15]; 10000 nM): 84.1%

SMILES: CCCCOc1nc(N)c2c(n1)N(Cc1cccc(CN3CCCC3)c1)CC(=O)N2 [GS-9620]
- relative viability EC50 [1]: > 10 µM
- relative viability EC50 [2]: > 10 µM
- relative viability EC50 [3]: > 10 µM
- relative viability EC50 [4]: > 10 µM
- relative viability EC50 [5]: > 10 µM
- drug sensitivity score [6]: 0
- drug sensitivity score [7]: 0
- drug sensitivity score [8]: 0
- drug sensitivity score [9]: 0
- drug sensitivity score [10]: 0
- cell viability ([11]; 1 nM): 105%
- cell viability ([11]; 10 nM): 102%
- cell viability ([11]; 100 nM): 95.9%
- cell viability ([11]; 1000 nM): 100%
- cell viability ([11]; 10000 nM): 99.1%
- cell viability ([12]; 1 nM): 101%
- cell viability ([12]; 10 nM): 95.1%
- cell viability ([12]; 100 nM): 111%
- cell viability ([12]; 1000 nM): 96.1%
- cell viability ([12]; 10000 nM): 104%
- cell viability ([13]; 1 nM): 100%
- cell viability ([13]; 10 nM): 96.5%
- cell viability ([13]; 100 nM): 96.8%
- cell viability ([13]; 1000 nM): 95.6%
- cell viability ([13]; 10000 nM): 101%
- cell viability ([14]; 1 nM): 108%
- cell viability ([14]; 10 nM): 96.3%
- cell viability ([14]; 100 nM): 101%
- cell viability ([14]; 1000 nM): 103%
- cell viability ([14]; 10000 nM): 98.8%
- cell viability ([15]; 1 nM): 96.3%
- cell viability ([15]; 10 nM): 104%
- cell viability ([15]; 100 nM): 91.4%
- cell viability ([15]; 1000 nM): 98.5%
- cell viability ([15]; 10000 nM): 98.3%

SMILES: Fc1cc(F)c2c(c1)[C@H]1C=CC[C@H]1C(c1cccnc1)N2 (stereo not given in full) [Golgicide A]
- relative viability EC50 [1]: 3.48 µM
- relative viability EC50 [2]: 3.01 µM
- relative viability EC50 [3]: 3.46 µM
- relative viability EC50 [4]: 3.2 µM
- relative viability EC50 [5]: 2.97 µM
- drug sensitivity score [6]: 4.5
- drug sensitivity score [7]: 4.7
- drug sensitivity score [8]: 5.1
- drug sensitivity score [9]: 5.3
- drug sensitivity score [10]: 4
- cell viability ([11]; 1 nM): 121%
- cell viability ([11]; 10 nM): 108%
- cell viability ([11]; 100 nM): 102%
- cell viability ([11]; 1000 nM): 105%
- cell viability ([11]; 10000 nM): 10.9%
- cell viability ([12]; 1 nM): 103%
- cell viability ([12]; 10 nM): 108%
- cell viability ([12]; 100 nM): 108%
- cell viability ([12]; 1000 nM): 98.2%
- cell viability ([12]; 10000 nM): 19%
- cell viability ([13]; 1 nM): 103%
- cell viability ([13]; 10 nM): 101%
- cell viability ([13]; 100 nM): 105%
- cell viability ([13]; 1000 nM): 105%
- cell viability ([13]; 10000 nM): 1.7%
- cell viability ([14]; 1 nM): 111%
- cell viability ([14]; 10 nM): 108%
- cell viability ([14]; 100 nM): 105%
- cell viability ([14]; 1000 nM): 100%
- cell viability ([14]; 10000 nM): 4.4%
- cell viability ([15]; 1 nM): 108%
- cell viability ([15]; 10 nM): 103%
- cell viability ([15]; 100 nM): 101%
- cell viability ([15]; 1000 nM): 98.2%
- cell viability ([15]; 10000 nM): 31.5%
